PMC7822874, “Chemoprotective antimalarials identified through quantitative high-throughput screening of Plasmodium blood and liver stage parasites” (Scientific Reports, 2021)
Values joined by “and” are separate entries in the source; they are usually repeats but may differ in a detail not shown here. Equal values may be shown once. Read-outs that look alike come from different tables or passages of the source.

Columns and labels:
[1] = test system: T1, Plasmodium falciparum Dd2-attB-ScDHODH (transgenic line expressing yeast DHODH), asexual blood stages; assay: organism not typed; design: replicate k of 3 (each line is one of three independent assays; the three lines of one compound and parasite line follow each other)
T1 construct: Dd2-attB-ScDHODH, the transgenic line that expresses yeast DHODH
Method: (§1) The overexpression of the fumarate-dependent yeast DHODH confers resistance to compounds that inhibit the parasite mETC, or the parasite DHODH enzyme that depends on ubiquinone provided by the parasite mETC. Assays were performed in three independent assays on a subset of compounds, and differences between the Dd2-attB parental line and the ScDHODH transgenic line were analyzed using two-sided Student’s t-tests.

[2] = test system: T2, Plasmodium falciparum Dd2-attB (parental line), asexual blood stages; assay: microbe, parasite or virus in culture; design: replicate k of 3 (each line is one of three independent assays; the three lines of one compound and parasite line follow each other); details: n = 1; for Individual replicates / Log AC50 (M): 72 h; for AC50: Plasmodium falciparum, DD2, 72 h, read-out: Individual replicates / Log AC50 (converted)
T2 construct: Dd2-attB, the isogenic parental line
Method: as §1

[3] = 72 h; n = 1; read-out: Individual replicates / Log AC50 (converted)

Row | Structure (SMILES) | Individual replicates / Log AC50 (M) ([1]; 72 h; n = 1) | AC50 [1, 3] | Individual replicates / Log AC50 (M) [2] | AC50 [2] | Individual replicates / Log AC50 (M) ([1]; 72 h, n = 1) | AC50 ([1]; 72 h, read-out: Individual replicates / Log AC50 (M) (converted); n = 1)
1 | O=C(CCc1ccccc1)NC(c1cccs1)c1cc(Cl)c2cccnc2c1O (stereo not drawn) [MLS000703748-02] | -5.3986 Log AC50 (M) | 3.99e-06 M | -5.4486 Log AC50 (M) | 3.99 µM | – | –
2 | CN1CCN(Cc2cc(COCc3ccccc3)c3cccnc3c2O)CC1 [NCGC00052276-02] | – | – | -5.1986 Log AC50 (M) and -5.0486 Log AC50 (M) | 5.03 µM | -5.2986 Log AC50 (M) (2×) and -4.9486 Log AC50 (M) | –
3 | CCc1nc2c(sc3nc4c(cc32)COC(C)(C)C4)c(=O)n1Cc1ccco1 [NCGC00053301-03] | – | 1e-05 M | – | 17.8 µM | – | –
4 | O=C(CC[S+](=O)([O-])c1nc(-c2cccs2)cc(C(F)(F)F)n1)Nc1ccc(OC(F)(F)F)cc1 [NCGC00103927-03] | – | 1.59e-05 M | -4.7986 Log AC50 (M) | 17.8 µM | -4.8486 Log AC50 (M) | –
5 | CC(C)c1ccc(Nc2c(-c3ccccn3)nc3ccccn23)cc1 [NCGC00104490-03] | – | 5.64e-06 M | -5.1986 Log AC50 (M) and -5.1486 Log AC50 (M) | 5.64 µM | -5.0986 Log AC50 (M) | –
6 | Cc1cccc2nc(-c3ccccn3)c(Nc3ccc(F)cc3)n12 [NCGC00106061-03] | – | 5.64e-06 M | -5.2986 Log AC50 (M) | 5.03 µM | -5.2986 Log AC50 (M) and -5.0986 Log AC50 (M) | –
7 | Cc1ccc2nc(-c3ccccn3)c(Nc3ccccc3C)n2c1 [NCGC00106087-03] | – | 5.64e-06 M | -5.3486 Log AC50 (M) and -5.2486 Log AC50 (M) | 4.48 µM | -5.1986 Log AC50 (M) and -5.1486 Log AC50 (M) | –
8 | Cc1ccc(NC2=C(c3ccc(C(F)(F)F)cc3)C(=O)c3ccccc32)cc1F [NCGC00107266-02] | – | – | -6.3986 Log AC50 (M) and -6.3486 Log AC50 (M) (2×) | – | -5.2986 Log AC50 (M) and -5.1986 Log AC50 (M) and -5.5486 Log AC50 (M) | –
9 | Cc1nnc2c3ccccc3nc(N3CCN(c4ccccc4)CC3)n12 [NCGC00107295-01] | – | 1.42e-05 M | -4.7986 Log AC50 (M) | 15.9 µM | – | –
10 | Cc1ccc(C)c(NC2=C(c3ccc(C(F)(F)F)cc3)C(=O)c3ccccc32)c1 [NCGC00107302-02] | – | – | -5.8486 Log AC50 (M) and -5.6486 Log AC50 (M) (2×) | – | -5.0486 Log AC50 (M) and -4.9486 Log AC50 (M) and -4.9986 Log AC50 (M) | –
11 | O=C1C(c2ccc(C(F)(F)F)cc2)=C(Nc2ccc(Cl)cc2)c2ccccc21 [NCGC00107304-02] | – | – | -6.0486 Log AC50 (M) and -5.9486 Log AC50 (M) (2×) | – | -5.1986 Log AC50 (M) and -5.3486 Log AC50 (M) and -5.6486 Log AC50 (M) | –
12 | COc1ccc(NC2=C(c3ccc(C(F)(F)F)cc3)C(=O)c3ccccc32)cc1 [NCGC00107310-02] | – | – | -6.3986 Log AC50 (M) and -6.2986 Log AC50 (M) and -6.5486 Log AC50 (M) | – | -5.1486 Log AC50 (M) and -5.2986 Log AC50 (M) | –
13 | Cc1cccc(N2CCN(C(=O)Cn3ncc4c3-c3ccccc3OC4)CC2)c1C [NCGC00112661-03] | – | – | -4.9486 Log AC50 (M) and -4.7486 Log AC50 (M) | – | -4.8986 Log AC50 (M) and -5.0986 Log AC50 (M) | –
14 | O=C(/C=C/c1cn(CC(O)CN2CCCCCC2)c2ccccc12)c1ccc(Br)cc1 (stereo not drawn) [NCGC00114921-03] | – | 4.48e-06 M | -5.2486 Log AC50 (M) and -5.0986 Log AC50 (M) | 4.48 µM | -5.0486 Log AC50 (M) and -5.1986 Log AC50 (M) | –
15 | CCOc1ccc(-c2[nH]c3c(C#N)cnn3c2NC2CCCC2)cc1 [NCGC00120007-02] | – | 1.78e-05 M | -4.7486 Log AC50 (M) | 14.2 µM | -4.8486 Log AC50 (M) | –
16 | O=C(Nc1ccccc1F)c1ccc(Cn2nc(N3CCN(c4ccccc4)CC3)ccc2=O)o1 [NCGC00127944-02] | – | 8.94e-06 M | -5.1486 Log AC50 (M) and -5.0986 Log AC50 (M) | 7.97 µM | -5.0986 Log AC50 (M) and -5.0486 Log AC50 (M) | –
17 | COc1cc(CN2CCc3nc(N4CCN(c5ncccn5)CC4)ncc3C2)cc(OC)c1OC [NCGC00131437-02] | – | 7.1e-06 M | -5.3486 Log AC50 (M) and -5.1486 Log AC50 (M) | 5.64 µM | -5.1486 Log AC50 (M) and -5.0986 Log AC50 (M) | –
18 | CCOc1ccc(NC(=O)c2c(NCc3cccnc3)sc3c2CCCC3)cc1 [NCGC00140582-02] | – | 6.33e-06 M | -5.3486 Log AC50 (M) and -5.2986 Log AC50 (M) | 5.64 µM | -5.2486 Log AC50 (M) and -5.1486 Log AC50 (M) | –
19 | CCCCN1CCCc2cc(CN(CCCN3CCOCC3)C(=O)Nc3ccc(CC)cc3)ccc21 [NCGC00140595-02] | – | 7.97e-06 M | -5.0986 Log AC50 (M) | 7.97 µM | -5.0486 Log AC50 (M) | –
20 | CCCN1CCCc2cc(CN(CCCN3CCOCC3)C(=O)Nc3ccc(Cl)c(Cl)c3)ccc21 [NCGC00140597-02] | – | 3.99e-06 M | -5.3486 Log AC50 (M) and -5.2986 Log AC50 (M) | 3.99 µM | -5.3986 Log AC50 (M) and -5.0986 Log AC50 (M) | –
21 | Oc1ccc(CNc2cccc(C(F)(F)F)c2)c2cccnc12 [NCGC00177833-02] | – | 1.59e-05 M | – | 17.8 µM | -4.7486 Log AC50 (M) | –
22 | Oc1ccc(CNCc2ccc3c(c2)OCO3)c2cccnc12 [NCGC00183368-01] | – | 1.59e-05 M | -4.7986 Log AC50 (M) | 15.9 µM | -4.7486 Log AC50 (M) | –
23 | CN1CCN(C2CCN(Cc3ccc(O)c4ncccc34)CC2)CC1 [NCGC00183373-01] | – | 1.59e-05 M | – | 17.8 µM | – | –
24 | Oc1ccc(CNc2cccc(F)c2F)c2cccnc12 [NCGC00183376-01] | -4.7486 Log AC50 (M) | 1.78e-05 M | -4.7486 Log AC50 (M) | 17.8 µM | – | –
25 | Oc1ccc(COc2cccc3ccccc23)c2cccnc12 [NCGC00183380-01] | – | – | -4.7986 Log AC50 (M) and -4.7486 Log AC50 (M) | 20 µM | – | 1.59e-05 M
26 | Oc1ccc(COCc2ccc(F)cc2)c2cccnc12 [NCGC00183381-01] | – | 1.59e-05 M | -4.7986 Log AC50 (M) | 17.8 µM | -4.7486 Log AC50 (M) and -4.7986 Log AC50 (M) | –
27 | Oc1cc(Nc2ccncc2)cc2cccnc12 [NCGC00183791-01] | – | 2e-05 M | -4.7486 Log AC50 (M) and -4.7986 Log AC50 (M) | 20 µM | -4.7486 Log AC50 (M) | –
28 | CN(C)c1ccc(-c2cc(O)c3ncccc3c2)cc1 [NCGC00183795-01] | – | – | -5.0986 Log AC50 (M) and -5.1486 Log AC50 (M) | 8.94 µM | -4.7486 Log AC50 (M) and -4.9986 Log AC50 (M) | –
29 | Oc1cc(NCCN2CCOCC2)cc2cccnc12 [NCGC00183799-01] | – | 8.94e-06 M | -5.1486 Log AC50 (M) and -5.2486 Log AC50 (M) | 6.33 µM | – | –
